Measurements reported in US8980587B2, “Process for producing reveromycin A or a synthetic intermediate thereof, process for producing compounds containing a spiroketal ring and novel antineoplastics, fungicides and therapeutic agents for bone disorders” (RIKEN, priority 2010, dated 2015).
Converted amounts (≈) assume the structure as drawn. Where two headings read alike, the source gives them in different places.

Experiments:
Format in all cases: cell-based
[1] = system: Escherichia coli (HO141 strain); assay: Growth-inhibiting activity against Escherichia coli; details: 6 hours, absorbance at 600 nm, read-out: E. coli IC50
Experimental: Escherichia coli (HO141 strain) was precultured in culture medium of 0.5% Polypeptone, 0.5% Meat Extract, 0.3% NaCl, and 0.001% Sodium Dodecyl Sulfate (SDS) at 37° C. Absorbance at 600 nm was measured, and Escherichia coli solution was prepared such that the absorbance is 0.005 and seeded 100 μl each in a 96-well plate. Each of the agents in Table 5 was added at 0.5% (v/v) and maintained at 37° C. Six hours after addition of the agent, absorbance at 600 nm was measured using a microplate reader (manufactured by PerkinElmer) and a proliferation rate was determined from the measurement value.

[2] = system: tsFT210 cells (mouse breast cancer cells CDC2 temperature sensitive strain); assay: Growth-inhibiting activity against animal cells (WST-8), tsFT210
Experimental: HL-60 cells (human acute promyelocytic leukemia cell line) and K562 cells (human chronic myeloid leukemia cell line) were maintained in a culture medium in which RPMI1640 medium (manufactured by Invitrogen) was added with 10% fetal bovine serum (manufactured by Nichirei), 0.5% penicillin/streptomycin solution (manufactured by Invitrogen) at 37° C. under a humidified culture of 5% CO2. tsFT210 cells (mouse breast cancer cells CDC2 temperature sensitive strain) were maintained in a culture medium in which RPMI1640 medium (manufactured by Invitrogen) was added with 5% calf serum (manufactured by Hyclone) and 0.5% penicillin/streptomycin solution at 32° C. under a humidified culture of 5% CO2.
HL-60 cells and K562 cells were seeded in a 96-well plate (manufactured by IWAKI) so as to be 1.5×10^4 cells/well/100 μl. tsFT210 cells were seeded in a 96-well plate so as to be 1.6×10^4 cell/well/100 μl. Each of the agents in Table 5 was added at 0.5% (v/v). HL-60 cells and K562 cells were maintained at 37° C. under a humidified culture of 5% CO2 and tsFT210 cells were maintain at 32° C. under a humidified culture of 5% CO2. Forty eight hours after addition of the agent, 10 μl of a reagent SF solution for counting live cells (WST-8 reagent, manufactured by Nakarai tesque) was added to each well. HL-60 cells and K562 cells were maintained at 37° C. under a humidified culture of 5% CO2 for 30 minutes and tsFT210 cells were maintain at 32° C. under a humidified culture of 5% CO2 for one hour. After the reaction, absorbance at 450 nm was measured using a microplate reader (manufactured by PerkinElmer) and a cell proliferation rate was determined from the measurement value.

[3] = system: Budding yeast (MLC30M strain); assay: Growth-inhibiting activity against yeast; details: for IC50: Saccharomyces cerevisiae, read-out: Yeast IC50
Experimental: Budding yeast (MLC30M strain) was precultured in a culture medium of 2% Polypeptone, 1% yeast extract, 2% glucose, 0.02% adenine, and 0.001% sodium dodecyl sulfate (SDS) at 30° C. Absorbance at 600 nm was measured, and yeast solution was prepared such that the absorbance is 0.05 and seeded 100 μl each in a 96-well plate. Each of the agents in Table 5 was added at 0.5% (v/v) and maintained at 30° C. Eighteen hours after addition of the agent, absorbance at 600 nm was measured using a microplate reader (manufactured by PerkinElmer) and a proliferation rate was determined from the measurement value.

[4] = tsFT210, 48 h, read-out: tsFT210 IC50

| Compound | IC50 [1] | IC50 [2, 4] | IC50 ([3]; 18 h) | IC50 ([2]; tsFT210 cells, 32° C., 48 hours after addition of the agent, WST-8, read-out: tsFT210 IC50) | IC50 ([3]; MLC30M strain, 18 hours, absorbance at 600 nm) | growth-inhibiting activity against yeast (in words) ([3]; summary of Table 5) |
| --- | --- | --- | --- | --- | --- | --- |
| CCCC[C@@]1(OC(=O)CCC(=O)O)CC[C@]2(CC[C@H](C)[C@@H](C/C=C(C)/C=C/[C@H](O)[C@@H](C)/C=C/C(=O)O)O2)O[C@H]1/C=C/C(C)=C/C(=O)O [RM-A, Reveromycin A] | > 50 mg/L | 8.5 mg/L (≈ 12.9 µM) | 4.3 mg/L (≈ 6.51 µM) | – | – | – |
| CCCCCC[C@@]1(OC(=O)CCC(=O)O)CC[C@]2(CC[C@H](C)[C@@H](C/C=C(C)/C=C/[C@H](O)[C@@H](C)/C=C/C(=O)O)O2)O[C@H]1/C=C/C(C)=C/C(=O)O [RM-E] | > 50 mg/L | 7 mg/L (≈ 10.2 µM) | 2.3 mg/L (≈ 3.34 µM) | – | – | – |
| CCCC[C@H]1CC[C@]2(CC[C@H](C)[C@@H](C/C=C(C)/C=C/[C@H](O)[C@@H](C)/C=C/C(=O)OCC)O2)O[C@H]1/C=C/C(C)=C/C(=O)O [RM-T ethyl-ester] | > 50 mg/L | – | – | 11.4 mg/L (≈ 19.9 µM) | > 50 mg/L | – |
| CCCCC1CCC2(CCC(C)C(C/C=C(C)/C=C/C(O)C(C)/C=C/C(=O)O)O2)OC1/C=C/C(C)=C/C(=O)O (stereo not shown) [RM-T] | > 50 mg/L | 0.4 mg/L (≈ 0.734 µM) | 0.05 mg/L (≈ 0.0918 µM) | – | – | exhibited growth-inhibiting activity against yeast |
